For one experiment, the system named is DDY strain male mice. Nature of the experiment: Memory fixation test in mice (passive avoidance learning). It is filed as in vivo. The conditions noted are these: 5 mice, assessed 24 hours after learning, physiological saline control 47 sec. The procedure: The measurement was conducted in accordance with the method described in Experientia 40, 506 (1984) with a slight modification made by the inventors. Several of the compounds of the invention were checked for their ability to enhance long-term memory fixation in the passive avoidance learning method using an apparatus which has an electrifiable grid floor and a refuge platform on one end of the floor. […] One hour after the administration, electric shocks were applied to the mice in a black box so that they would acquire passive avoidance learning.
The results of the test were assessed 24 hours after the learning in terms of the memory fixation acquired in the passive avoidance learning by measuring the residence time (latency) during which the mice stayed on the platform. The results between the test groups which received the test compound and the control group which received physiological saline in place of the test compound were compared.

A further experiment concerns the target prolyl endopeptidase (Elizabethkingia meningoseptica, UniProt P27028). Nature of the experiment: Anti-prolyl endopeptidase activity (inhibition of digestion of Z-glycyl-prolyl-β-naphthylamide). Format: biochemical. The conditions noted are these: amount for 50% inhibition; 0.0025M Z-glycyl-prolyl-β-naphthylamide (0.25 ml), pH 7.0, 35° C., 10 minutes, absorbance at 410 nm. The procedure: The method of Yoshimoto and Tsuru [T. Yoshimoto and D. Tsuru, Agric. Biol. Chem., 42, 2417 (1978)] was used to measure the anti-prolyl endopeptidase activities of several compounds of the present invention. A mixture of 0.0025M Z-glycyl-prolyl-β-naphthylamide (0.25 ml), 0.1M phosphate buffer (pH, 7.0; 0.99 ml) and a solution of a particular anti-prolyl endopeptidase compound (0.01 ml) was incubated in a test tube at 37° C. for 3 minutes. Thereafter, 0.1 ml of a solution of prolyl endopeptidase (0.2 U/ml) was added and the mixture was incubated at 35° C. for 10 minutes. After the reaction, 2.0 ml of Triton X-100 in 1M acetate buffer (pH, 4.0) was added to the reaction mixture so that the final concentration of the surfactant might be 10%. The mixture was left at room temperature for 15 minutes and the absorbance (a) at 410 nm was measured.
A sample of a blind test was prepared by using the buffer instead of the anti-prolyl endopeptidase compound and its absorbance (b) was also measured. The percentage of inhibition against prolyl endopeptidase was calculated by the formula: […]
and the amount of a specific compound need to achieve 50% inhibition (IC50) was determined.

Sequence of prolyl endopeptidase (P27028 21-705): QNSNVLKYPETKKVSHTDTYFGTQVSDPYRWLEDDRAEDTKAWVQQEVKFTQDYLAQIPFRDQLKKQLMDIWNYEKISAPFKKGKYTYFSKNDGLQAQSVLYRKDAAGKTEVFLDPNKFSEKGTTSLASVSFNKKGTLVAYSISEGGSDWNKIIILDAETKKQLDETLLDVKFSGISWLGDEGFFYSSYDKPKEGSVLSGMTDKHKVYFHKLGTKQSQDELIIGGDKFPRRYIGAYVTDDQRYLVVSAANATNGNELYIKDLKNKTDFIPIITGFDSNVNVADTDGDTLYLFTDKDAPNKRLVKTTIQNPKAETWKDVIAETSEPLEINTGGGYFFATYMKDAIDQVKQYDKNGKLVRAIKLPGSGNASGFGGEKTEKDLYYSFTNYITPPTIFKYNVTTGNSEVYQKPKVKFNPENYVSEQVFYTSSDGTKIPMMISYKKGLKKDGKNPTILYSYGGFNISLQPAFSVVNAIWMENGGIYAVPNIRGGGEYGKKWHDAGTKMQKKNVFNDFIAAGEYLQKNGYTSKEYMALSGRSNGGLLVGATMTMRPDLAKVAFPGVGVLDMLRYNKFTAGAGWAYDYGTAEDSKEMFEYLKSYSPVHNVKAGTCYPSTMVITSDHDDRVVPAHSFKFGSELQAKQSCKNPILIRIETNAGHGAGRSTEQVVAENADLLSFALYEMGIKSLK

For the compound `O=C([C@@H]1C[C@@H](O)CN1C(=O)CCCc1ccccc1)N1CCCC1` [SUAM 14432, N-[N-(4-phenylbutanoyl)-trans-4-hydroxy-L-prolyl]pyrrolidine], the Latency with DDY strain male mice (1.0 mg/kg per os) was found to be 76 s; with DDY strain male mice (3.0 mg/kg per os), 153 s. In addition, the IC50 against prolyl endopeptidase is given as 0.07 μg/test tube. For the compound `COc1ccc(O[C@H]2C[C@@H](C(=O)N3CCCC3)N(C(=O)CCCc3ccccc3)C2)cc1` [SUAM 14441, N-[N-(4-phenylbutanoyl)-cis-4-(4-methoxyphenoxy)-L-prolyl]pyrrolidine], the Latency with DDY strain male mice (1.0 mg/kg per os) was 101 s. Besides, the IC50 against prolyl endopeptidase worked out at 0.01 μg/test tube. For `COc1ccccc1O[C@H]1C[C@@H](C(=O)N2CCCC2)N(C(=O)CCCc2ccccc2)C1` [SUAM 14467, N-[N-(4-phenylbutanoyl)-cis-4-(2-methoxyphenoxy)-L-prolyl]pyrrolidine], the IC50 against prolyl endopeptidase was 0.008 μg/test tube. Still for that read-out and setting: under `COc1cccc(O[C@H]2C[C@@H](C(=O)N3CCCC3)N(C(=O)CCCc3ccccc3)C2)c1` [SUAM 14468, N-[N-(4-phenylbutanoyl)-cis-4-(3-methoxyphenoxy)-L-prolyl]pyrrolidine] stands 0.03 μg/test tube; under `COc1ccc(O[C@H]2C[C@@H](C(=O)N3CCCC3)N(C(=O)OCc3ccccc3)C2)cc1` [SUAM 14491, N-[N-benzyloxycarbonyl-cis-4-(4-methoxyphenoxy)-L-prolyl]pyrrolidine], 0.04 μg/test tube. As to `O=C([C@@H]1C[C@H](O)CN1C(=O)CCCc1ccccc1)N1CCCC1` [SUAM 14496, N-[N-(4-phenylbutanoyl)-cis-4-hydroxy-L-prolyl]pyrrolidine], the Latency with DDY strain male mice (0.3 mg/kg per os) was found to be 147 s; in the experiment on DDY strain male mice (1.0 mg/kg per os), 138 s; in the experiment with DDY strain male mice (3.0 mg/kg per os), 135 s. This compound registered an IC50 against prolyl endopeptidase of 0.10 μg/test tube.

Turning to `COc1ccc(C(=O)O[C@@H]2C[C@@H](C(=O)N3CCCC3)N(C(=O)CCCc3ccccc3)C2)cc1` [SUAM 14497, N-[N-4-phenylbutanoyl)-trans-4-(4-methoxybenzoyloxy-L-prolyl]pyrrolidine], the IC50 on prolyl endopeptidase was found to be 0.15 μg/test tube. Still for that read-out and setting: under `O=C(O[C@@H]1C[C@@H](C(=O)N2CCCC2)N(C(=O)CCCc2ccccc2)C1)c1ccccc1` [SUAM 14498] stands 0.30 μg/test tube; under `O=C(O[C@@H]1C[C@@H](C(=O)N2CCCC2)N(C(=O)CCCc2ccccc2)C1)c1ccc(Cl)cc1` [SUAM 14499, N-[N-(4-phenylbutanoyl)-trans-4-(4-chlorobenzoyloxy)-L-prolyl]pyrrolidine], 0.20 μg/test tube; under `COc1ccc(C(=O)O[C@H]2C[C@@H](C(=O)N3CCCC3)N(C(=O)CCCc3ccccc3)C2)cc1` [SUAM 14501], 0.04 μg/test tube. Turning to `O=C(O[C@H]1C[C@@H](C(=O)N2CCCC2)N(C(=O)CCCc2ccccc2)C1)c1ccccc1` [SUAM 14502, N-[N-(4-phenylbutanoyl)-cis-4-benzoyloxy-L-prolyl]pyrrolidine], the IC50 against prolyl endopeptidase was determined as 0.06 μg/test tube. Still for that read-out and setting: with `O=C(O[C@H]1C[C@@H](C(=O)N2CCCC2)N(C(=O)CCCc2ccccc2)C1)c1ccc(Cl)cc1` [SUAM 14503, N-[N-(4-phenylbutanoyl)-cis-4-(4-chlorobenzoyloxy)-L-prolyl]pyrrolidine] the figure was 0.06 μg/test tube; with `O=C([C@@H]1C[C@H](Oc2ccccc2)CN1C(=O)CCCc1ccccc1)N1CCCC1` [SUAM 14504, N-[N-(4-phenylbutanoyl)-cis-4-phenoxy-L-prolyl]pyrrolidine], 0.02 μg/test tube. In the experiment with DDY strain male mice (3.0 mg/kg per os), `CC(=O)O[C@@H]1C[C@@H](C(=O)N2CCCC2)N(C(=O)CCCc2ccccc2)C1` [SUAM 14506, N-[N-(4-phenylbutanoyl)-trans-4-acetoxy-L-prolyl]pyrrolidine] yielded a Latency of 64 s. This compound also displayed an IC50 on prolyl endopeptidase of 0.03 μg/test tube. For `CC(=O)O[C@H]1C[C@@H](C(=O)N2CCCC2)N(C(=O)CCCc2ccccc2)C1` [SUAM 14507, N-[N-(4-phenylbutanoyl)-cis-4-acetoxy-L-prolyl]pyrrolidine], in that order: 53 s and 0.10 μg/test tube. In the case of `O=C([C@@H]1C[C@H](Oc2ccc(Cl)cc2)CN1C(=O)CCCc1ccccc1)N1CCCC1` [SUAM 14508, N-[N-(4-phenylbutanoyl)-cis-4-(4-chlorophenoxy)-L-prolyl]pyrrolidine], the IC50 against prolyl endopeptidase came to 0.04 μg/test tube. For the compound `Cc1ccc(O[C@H]2C[C@@H](C(=O)N3CCCC3)N(C(=O)CCCc3ccccc3)C2)cc1` [SUAM 14509, N-[N-(4-phenylbutanoyl)-cis-4-(4-methylphenoxy)-L-prolyl]pyrrolidine], the Latency in the experiment with DDY strain male mice (3.0 mg/kg per os) came to 95 s. In addition, the IC50 on prolyl endopeptidase was 0.03 μg/test tube.

The values above are taken from patent US4810721A, “Pyrrolidineamide derivative having anti-prolyl endopeptidase” (Suntory Limited, priority 1986, dated 1989).
